Measurements published in patent US20250376483A1, “PRODRUGS OF PAN-KRAS INHIBITORS” (Mirati Therapeutics, Inc., priority 2022, published 2025).

Columns and labels:
[1] = Whole Blood Stability Assay (mouse whole blood); format: in vitro ADME; settings: CD-1 mouse blood, EDTA-K2, final conc. 2 μM, 37° C., 0-120 min; for half-life at 2 μM: male, fresh whole blood, read-out: Mouse Whole Blood Stability t1/2
Experimental: Whole Blood Stability Assay
This Example illustrates that exemplary compounds of the present invention is cleavage in mouse whole blood.
(§1) Test Compounds and Stock Solutions: Stock Conc. 10 mM; Final Conc. 2 μM
(§2) Test Compound and Control Working Solution Preparation:
• Intermediate solution: 5 μL of compound stock solution (10 mM in dimethyl sulfoxide (DMSO)) were diluted with […] of DMSO (intermediate solution concentration: 1 mM, 100% DMSO) • Propantheline bromide (control) intermediate solution: 5 μL of propantheline stock solution (10 mM in ultra-pure water) were diluted with 45 μL of ultra-pure water (intermediate solution concentration: 1 mM) • Working solution 1: 20 μL of test compound intermediate solution (1 mM) were diluted with 180 μL of 45% ACN/H2O (working solution concentration: […], 40.5% ACN, 10% DMSO) • Working solution 2: 20 μL of control intermediate solution (1 mM) were diluted with 180 μL of 45% ACN/H2O (working solution concentration: 100 μM, 40.5% ACN, 10% DMSO) • Species/Matrix: CD-1 Mouse Blood • No. of Individuals: n>3 Male • Anticoagulant Used: EDTA-K2
• The fresh blood was collected on the day of experiment and pre-warmed in a water bath at 37° C. • Using an Apricot automation workstation, 98 μL/well of blank blood were added to all 96-well reaction plates (Blank, T0, T10, T30, T60 and T120). • An Apricot automation workstation was used to add 2 μL/well of working solution (100 μM) to all reaction plates except Blank (T0, T10, T30, T60 and T120). • All reaction plates containing mixtures of compound and blood were incubated at 37° C. in water bath. • The reaction plates were incubated at 37° C., and timer was started. • At the end of incubation, mixed 100 μL water with 100 μL spiked blood samples, then added 800 μL of stop solution (200 ng/mL tolbutamide and 200 ng/mL labetalol in ACN) to precipitate protein. Mixed thoroughly. • Each plate was sealed and shaken for 20 minutes. • After shaking, each plate was centrifuged at 4000 rpm and 4° C. for 20 minutes. • After centrifugation, an Apricot automation workstation was used to transfer 150 μL of supernatant from each reaction plate to its corresponding bioanalysis plate. • Each bioanalysis plate was submitted to LC-MS/MS analysis.
• The % remaining of test compound after incubation in blood was calculated using following equation:
(§3) [formula] • where PAR is the peak area ratio of analyte versus internal standard (IS) • The appointed incubation time points are TO (0 min), Tn (n=0, 10, 30, 60 and 120 min)

[2] = Plasma Stability Assay (human plasma); format: in vitro ADME; settings: both sexes; pooled human plasma, heparin, final conc. 2 μM, 37° C., 0-120 min; read-out: Human Plasma Stability t1/2
Experimental: This Example illustrates that exemplary compounds of the present invention is cleavage in human plasma.
as §1, §2
• Test compound intermediate solution: 10 μL of compound stock solution (10 mM in dimethyl sulfoxide (DMSO)) were diluted with 90 μL of DMSO (intermediate solution concentration: 1 mM, 100% DMSO) • Control intermediate solution: 10 μL of control stock solution (10 mM in dimethyl sulfoxide (DMSO)) were diluted with 90 μL of DMSO (intermediate solution concentration: 1 mM, 100% DMSO) • Species/Matrix: Human Plasma • No. of Individuals: 3 Male & 3 Female • Anticoagulant Used: Heparin
• The pooled frozen plasma was thawed in a water bath at 37° C. prior to experiment. Plasma was centrifuged at 4000 rpm for 5 min and the clots were removed if any. • Using an Apricot automation workstation, 98 μL/well of blank plasma were added to all 96-well reaction plates. (Blank, T0, T10, T30, T60 and T120) • An Apricot automation workstation was used to add 2 μL/well of working solution (100 μM) to all reaction plates except Blank. (T0, T10, T30, T60 and T120) • All reaction plates containing mixtures of compound and plasma were incubated at 37° C. in water bath. • The reaction plates were incubated at 37° C., and timer was started. • At the end of incubation, added 500 μL of stop solution (200 ng/mL tolbutamide and 200 ng/mL labetalol in ACN) to precipitate protein. Mixed thoroughly. • Each plate was sealed and shaken for 20 minutes. • After shaking, each plate was centrifuged at 4000 rpm and 4° C. for 20 minutes • After centrifugation, an Apricot automation workstation was used to transfer 50 μL supernatant into 100 μL HPLC water. • Each bioanalysis plate was sealed and shaken for 10 minutes prior to LC-MS/MS analysis Data Analysis • The % remaining of test compound after incubation in blood was calculated using following equation:
as §3

Row | SMILES | half-life at 2 μM [1] [min] | half-life at 2 μM [2] [min] | Mouse Whole Blood Stability t1/2 [1] [min]
1 | CCc1c(F)ccc2cc(OC(=O)C3CC3)cc(N3CCc4c(nc(OC[C@@]56CCCN5C[C@H](F)C6)nc4N4CCC[C@]5(C4)NC(=O)NC5=O)C3)c12 [Example 32, 4-(4-((R)-2,4-dioxo-1,3,7-triazaspiro[4.5]decan-7-yl)-2-(((2R,7aS)-2-fluorotetrahydro-1H-pyrrolizin-7a(5H)-yl)methoxy)-5,8-dihydropyrido[3,4-d]pyrimidin-7(6H)-yl)-5-ethyl-6-fluoronaphthalen-2-yl cyclopropanecarboxylate] | 2 | 51 | –
2 | CCCC(=O)Oc1cc(N2CCc3c(nc(OC[C@@]45CCCN4C[C@H](F)C5)nc3N3CCC[C@]4(C3)NC(=O)NC4=O)C2)c2c(CC)c(F)ccc2c1 [Example 33, 4-(4-((R)-2,4-dioxo-1,3,7-triazaspiro[4.5]decan-7-yl)-2-(((2R,7aS)-2-fluorotetrahydro-1H-pyrrolizin-7a(5H)-yl)methoxy)-5,8-dihydropyrido[3,4-d]pyrimidin-7(6H)-yl)-5-ethyl-6-fluoronaphthalen-2-yl butyrate] | < 5 | 62 | –
3 | CCc1c(F)ccc2cc(OC(=O)N(C)C)cc(N3CCc4c(nc(OC[C@@]56CCCN5C[C@H](F)C6)nc4N4CCC[C@]5(C4)NC(=O)NC5=O)C3)c12 [Example 35, 4-(4-((R)-2,4-dioxo-1,3,7-triazaspiro[4.5]decan-7-yl)-2-(((2R,7aS)-2-fluorotetrahydro-1H-pyrrolizin-7a(5H)-yl)methoxy)-5,8-dihydropyrido[3,4-d]pyrimidin-7(6H)-yl)-5-ethyl-6-fluoronaphthalen-2-yl dimethylcarbamate] | > 289 | > 289 | –
4 | CCc1c(F)ccc2cc(OC(=O)N3CCC3)cc(N3CCc4c(nc(OC[C@@]56CCCN5C[C@H](F)C6)nc4N4CCC[C@]5(C4)NC(=O)NC5=O)C3)c12 [Example 37, 4-(4-((R)-2,4-dioxo-1,3,7-triazaspiro[4.5]decan-7-yl)-2-(((2R,7aS)-2-fluorotetrahydro-1H-pyrrolizin-7a(5H)-yl)methoxy)-5,8-dihydropyrido[3,4-d]pyrimidin-7(6H)-yl)-5-ethyl-6-fluoronaphthalen-2-yl azetidine-1-carboxylate] | 189 | > 289 | –
5 | CCc1c(F)ccc2cc(OC(=O)C(C)(C)C)cc(N3CCc4c(nc(OC[C@@]56CCCN5C[C@H](F)C6)nc4N4CCC[C@]5(C4)NC(=O)NC5=O)C3)c12 [Example 39, 4-(4-((R)-2,4-dioxo-1,3,7-triazaspiro[4.5]decan-7-yl)-2-(((2R,7aS)-2-fluorotetrahydro-1H-pyrrolizin-7a(5H)-yl)methoxy)-5,8-dihydropyrido[3,4-d]pyrimidin-7(6H)-yl)-5-ethyl-6-fluoronaphthalen-2-yl pivalate] | – | > 289 | 1
6 | CCc1c(F)ccc2cc(OC(=O)C3CCCC3)cc(N3CCc4c(nc(OC[C@@]56CCCN5C[C@H](F)C6)nc4N4CCC[C@]5(C4)NC(=O)NC5=O)C3)c12 [Example 42, 4-(4-((R)-2,4-dioxo-1,3,7-triazaspiro[4.5]decan-7-yl)-2-(((2R,7aS)-2-fluorotetrahydro-1H-pyrrolizin-7a(5H)-yl)methoxy)-5,8-dihydropyrido[3,4-d]pyrimidin-7(6H)-yl)-5-ethyl-6-fluoronaphthalen-2-yl cyclopentanecarboxylate] | – | 79 | 1

The next lines start with the values.

Row | half-life at 2 μM [1] [min] | half-life at 2 μM [2] [min] | Mouse Whole Blood Stability t1/2 [1] [min] | SMILES
7 | 2 | 12 | – | CCc1c(F)ccc2cc(OC(C)=O)cc(N3CCc4c(nc(OC[C@@]56CCCN5C[C@H](F)C6)nc4N4CCC[C@]5(C4)NC(=O)NC5=O)C3)c12 [Example 27, 4-(4-((R)-2,4-dioxo-1,3,7-triazaspiro[4.5]decan-7-yl)-2-(((2R,7aS)-2-fluorotetrahydro-1H-pyrrolizin-7a(5H)-yl)methoxy)-5,8-dihydropyrido[3,4-d]pyrimidin-7(6H)-yl)-5-ethyl-6-fluoronaphthalen-2-yl acetate]
8 | 2 | 33 | – | CCC(=O)Oc1cc(N2CCc3c(nc(OC[C@@]45CCCN4C[C@H](F)C5)nc3N3CCC[C@]4(C3)NC(=O)NC4=O)C2)c2c(CC)c(F)ccc2c1 [Example 29, 4-(4-((R)-2,4-dioxo-1,3,7-triazaspiro[4.5]decan-7-yl)-2-(((2R,7aS)-2-fluorotetrahydro-1H-pyrrolizin-7a(5H)-yl)methoxy)-5,8-dihydropyrido[3,4-d]pyrimidin-7(6H)-yl)-5-ethyl-6-fluoronaphthalen-2-yl propionate]
9 | – | 27 | 1 | CCc1c(F)ccc2cc(OC(=O)OC)cc(N3CCc4c(nc(OC[C@@]56CCCN5C[C@H](F)C6)nc4N4CCC[C@]5(C4)NC(=O)NC5=O)C3)c12 [Example 30, 4-(4-((R)-2,4-dioxo-1,3,7-triazaspiro[4.5]decan-7-yl)-2-(((2R,7aS)-2-fluorotetrahydro-1H-pyrrolizin-7a(5H)-yl)methoxy)-5,8-dihydropyrido[3,4-d]pyrimidin-7(6H)-yl)-5-ethyl-6-fluoronaphthalen-2-yl methyl carbonate]
10 | – | 210 | 1 | CCc1c(F)ccc2cc(OC(=O)C(C)C)cc(N3CCc4c(nc(OC[C@@]56CCCN5C[C@H](F)C6)nc4N4CCC[C@]5(C4)NC(=O)NC5=O)C3)c12 [Example 34, 4-(4-((R)-2,4-dioxo-1,3,7-triazaspiro[4.5]decan-7-yl)-2-(((2R,7aS)-2-fluorotetrahydro-1H-pyrrolizin-7a(5H)-yl)methoxy)-5,8-dihydropyrido[3,4-d]pyrimidin-7(6H)-yl)-5-ethyl-6-fluoronaphthalen-2-yl isobutyrate]
11 | 3 | 33 | – | CCOC(=O)Oc1cc(N2CCc3c(nc(OC[C@@]45CCCN4C[C@H](F)C5)nc3N3CCC[C@]4(C3)NC(=O)NC4=O)C2)c2c(CC)c(F)ccc2c1 [Example 36, 4-(4-((R)-2,4-dioxo-1,3,7-triazaspiro[4.5]decan-7-yl)-2-(((2R,7aS)-2-fluorotetrahydro-1H-pyrrolizin-7a(5H)-yl)methoxy)-5,8-dihydropyrido[3,4-d]pyrimidin-7(6H)-yl)-5-ethyl-6-fluoronaphthalen-2-yl ethyl carbonate]
12 | 2 | 95 | – | CCc1c(F)ccc2cc(OC(=O)OC(C)C)cc(N3CCc4c(nc(OC[C@@]56CCCN5C[C@H](F)C6)nc4N4CCC[C@]5(C4)NC(=O)NC5=O)C3)c12 [Example 40, 4-(4-((R)-2,4-dioxo-1,3,7-triazaspiro[4.5]decan-7-yl)-2-(((2R,7aS)-2-fluorotetrahydro-1H-pyrrolizin-7a(5H)-yl)methoxy)-5,8-dihydropyrido[3,4-d]pyrimidin-7(6H)-yl)-5-ethyl-6-fluoronaphthalen-2-yl isopropyl carbonate]
